Source: US20060046988A1, “Methoprene formulations for the control of tick infestations” (priority 2004, published 2006)
Where two headings read alike, the source gives them in different places.

Tested on: Rhipicephalus sanguineus
Test: In vitro immersion of engorged female ticks in (S)-methoprene: oviposition, egg mass weight, egg hatch
Conditions: for Eggs Weight: Day 13; for Eggs Hatch (%): 48 days after exposure; for inhibition at 100 ppm / inhibition at 1000 ppm / inhibition at 10000 ppm / inhibition at 100000 ppm: Rhipicephalus sanguineus; for Egg Mass Per Tick / Total Egg Mass / Total Viable Egg Mass / Viable Egg Mass Per Tick / Reduction in Ticks Laying Eggs: replicates combined
Procedure: The effect of (S)-methoprene on oviposition, egg mass weights, and egg eclosion was measured in adult females of a colonized strain of the brown dog tick, Rhipicephalus sanguineus. Approximately fifty R. sanguineus ticks were fed on twelve dogs each. Fully engorged females that dropped from the dogs over a period of two days were collected and combined into replicates. The following replicates were formed: Replicate A-50 ticks, Replicate B-40 ticks, and Replicate C-10 ticks. From each replicate A-C, 5 groups of equal numbers of ticks were formed, each group of ticks having similar combined body weights. Each of the 5 groups of ticks was randomly allocated to a treatment group.
The treatment groups were: Treatment I-Control: acetone/water (40%: 60%); Treatment 2-100 ppm (S)-methoprene dissolved in acetone/water (40:60); Treatment 3-1,000 ppm (S)-methoprene dissolved in acetone/water (40:60); Treatment 4-10,000 ppm (S)-methoprene dissolved in acetone/water (40:60); and Treatment 5-100,000 ppm (S)-methoprene dissolved in acetone/water (40:60). Each group of ticks was immersed in the appropriate test solution for two mins, after which they were removed, dried on a paper towel and placed in a clean container. All ticks in all treatment groups were kept in an environmental chamber maintained at 26-27° Celsius and 65-87% relative humidity. The number of ticks that laid eggs and total egg mass weights for each replicate of each treatment group was recorded 13 days after exposure to treatment. Additionally, an estimation of percentage of egg hatching for each replicate in each treatment group was recorded 48 days after exposure to treatment.
The number of ticks laying eggs, egg mass weights, percentage of eggs that hatched, and weight of viable eggs are provided in Table 1.

[1] = 100 ppm, Replicate A, 10 ticks treated
[2] = 100 ppm, Replicate B, 8 ticks treated
[3] = 100 ppm, Replicate C, 2 ticks treated
[4] = 1,000 ppm, Replicate A, 10 ticks treated
[5] = 1,000 ppm, Replicate B, 8 ticks treated
[6] = 1,000 ppm, Replicate C, 2 ticks treated
[7] = 10,000 ppm, Replicate A, 10 ticks treated
[8] = 10,000 ppm, Replicate B, 8 ticks treated
[9] = 10,000 ppm, Replicate C, 2 ticks treated
[10] = 100,000 ppm, Replicate A, 10 ticks treated
[11] = 100,000 ppm, Replicate B, 8 ticks treated
[12] = 100,000 ppm, Replicate C, 2 ticks treated
[13] = Treatment 3: 1,000 ppm, compared to control
[14] = Treatment 4: 10,000 ppm, compared to control
[15] = Treatment 5: 100,000 ppm, compared to control

## COC(C)(C)CCC[C@H](C)C/C=C/C(C)=C/C(=O)OC(C)C [(S)-methoprene]
[1]
  Eggs Viable: 1.65 g
  Number of Ticks Laying Eggs (Day 13): 10
  Eggs Weight: 1.67 g
100 ppm, Replicate A
  Eggs Hatch (%): 99%
[2]
  Eggs Viable: 1.36 g
  Number of Ticks Laying Eggs (Day 13): 8
  Eggs Weight: 1.36 g
100 ppm, Replicate B
  Eggs Hatch (%): 100%
[3]
  Eggs Viable: 0.18 g
  Number of Ticks Laying Eggs (Day 13): 2
  Eggs Weight: 0.35 g
100 ppm, Replicate C
  Eggs Hatch (%): 50%
[4]
  Eggs Viable: 0.26 g
  Number of Ticks Laying Eggs (Day 13): 9
  Eggs Weight: 1.03 g
1,000 ppm, Replicate A
  Eggs Hatch (%): 25%
[5]
  Eggs Viable: 0.29 g
  Number of Ticks Laying Eggs (Day 13): 8
  Eggs Weight: 0.95 g
1,000 ppm, Replicate B
  Eggs Hatch (%): 30%
[6]
  Eggs Viable: 0.10 g
  Number of Ticks Laying Eggs (Day 13): 2
  Eggs Weight: 0.28 g
1,000 ppm, Replicate C
  Eggs Hatch (%): 35%
[7]
  Eggs Viable: 0 g
  Number of Ticks Laying Eggs (Day 13): 10
  Eggs Weight: 0.97 g
10,000 ppm, Replicate A
  Eggs Hatch (%): 0%
[8]
  Eggs Viable: 0 g
  Number of Ticks Laying Eggs (Day 13): 8
  Eggs Weight: 0.57 g
10,000 ppm, Replicate B
  Eggs Hatch (%): 0%
[9]
  Eggs Viable: 0 g
  Number of Ticks Laying Eggs (Day 13): 2
  Eggs Weight: 0.14 g
10,000 ppm, Replicate C
  Eggs Hatch (%): 0%
[10]
  Eggs Viable: 0 g
  Number of Ticks Laying Eggs (Day 13): 8
  Eggs Weight: 0.59 g
100,000 ppm, Replicate A
  Eggs Hatch (%): 0%
[11]
  Eggs Viable: 0 g
  Number of Ticks Laying Eggs (Day 13): 8
  Eggs Weight: 0.39 g
100,000 ppm, Replicate B
  Eggs Hatch (%): 0%
[12]
  Eggs Viable: 0 g
  Number of Ticks Laying Eggs (Day 13): 2
  Eggs Weight: 0.05 g
100,000 ppm, Replicate C
  Eggs Hatch (%): 0%
Treatment 2: 100 ppm, compared to control, read-out: Reduction Viable Egg Mass Per Tick
  inhibition at 100 ppm: 0%
Treatment 2: 100 ppm, compared to control, read-out: Reduction in Viable Egg Mass
  inhibition at 100 ppm: 0%
Treatment 3: 1,000 ppm, compared to control, read-out: Reduction Viable Egg Mass Per Tick
  inhibition at 1000 ppm: 78%
Treatment 3: 1,000 ppm, compared to control, read-out: Reduction in Viable Egg Mass
  inhibition at 1000 ppm: 79%
Treatment 4: 10,000 ppm, compared to control, read-out: Reduction Viable Egg Mass Per Tick
  inhibition at 10000 ppm: 100%
Treatment 4: 10,000 ppm, compared to control, read-out: Reduction in Viable Egg Mass
  inhibition at 10000 ppm: 100%
Treatment 5: 100,000 ppm, compared to control, read-out: Reduction Viable Egg Mass Per Tick
  inhibition at 100000 ppm: 100%
Treatment 5: 100,000 ppm, compared to control, read-out: Reduction in Viable Egg Mass
  inhibition at 100000 ppm: 100%
Treatment 2: 100 ppm
  Egg Mass Per Tick: 0.169 g
  Total Egg Mass: 3.38 g
  Total Viable Egg Mass: 3.19 g
  Viable Egg Mass Per Tick: 0.160 g
Treatment 2: 100 ppm, compared to control
  Reduction in Ticks Laying Eggs: 0%
[13]
  Egg Mass Per Tick Reduction: 28%
  Reduction of Total Egg Mass: 32%
  Reduction in Ticks Laying Eggs: 5%
Treatment 3: 1,000 ppm
  Egg Mass Per Tick: 0.119 g
  Total Egg Mass: 2.26 g
  Total Viable Egg Mass: 0.65 g
  Viable Egg Mass Per Tick: 0.034 g
[14]
  Egg Mass Per Tick Reduction: 49%
  Reduction Viable Egg Mass Per Tick: 100%
  Reduction of Total Egg Mass: 49%
  Reduction in Ticks Laying Eggs: 0%
Treatment 4: 10,000 ppm
  Egg Mass Per Tick: 0.084 g
  Total Egg Mass: 1.68 g
  Total Viable Egg Mass: 0 g
  Viable Egg Mass Per Tick: 0 g
[15]
  Egg Mass Per Tick Reduction: 65%
  Reduction in Viable Egg Mass: 100%
  Reduction of Total Egg Mass: 69%
  Reduction in Ticks Laying Eggs: 10%
Treatment 5: 100,000 ppm
  Egg Mass Per Tick: 0.057 g
  Total Egg Mass: 1.03 g
  Total Viable Egg Mass: 0 g
  Viable Egg Mass Per Tick: 0 g
